Experimental data from US20250144067A1, “PERSONALIZED STARVATION THERAPY FOR CANCER” (Faeth Therapeutics, Inc., priority 2021, published 2025).
Where a name gives a salt, the structure may show the parent alone. Read-outs that look alike come from different tables or passages of the source.

Columns and labels:
[1] = tested on: NCI-H292 lung cancer cells; experiment: FDA drug screening, complete media vs cholesterol-free media without statin (TABLE 1); assay type: cell-based, human
[2] = tested on: NCI-H292 lung cancer cells; experiment: FDA drug screening, complete media vs cholesterol-free media with simvastatin (TABLE 2); assay type: cell-based, human
[3] = Complete minus Cholesterol-free, >0 enhanced anti-cancer activity, about 0 neutral, <0 antagonist
[4] = NCI-H292 cells, cholesterol-free media without statin
[5] = NCI-H292 cells, FDA drug library screen, cholesterol-free media with simvastatin 0.04 μM
[6] = NCI-H292 cells, FDA drug library screen, complete media
[7] = complete media vs cholesterol-free media + simvastatin (0.04 μM), >0 enhanced anti-cancer activity, about 0 neutral, <0 antagonist
[8] = Complete minus Cholesterol-free, […]
[9] = NCI-H292 cells, cholesterol-free media with simvastatin 0.04 μM, FDA drug library screen (TABLE 2)
[10] = NCI-H292 cells, complete media, FDA drug library screen (TABLE 2)
[11] = NCI-H292 cells, cholesterol-free media without statin, FDA drug library screen
[12] = NCI-H292 cells, complete media, FDA drug library screen
[13] = complete vs cholesterol-free media, >0 enhanced anti-cancer activity, about 0 neutral, <0 antagonist
[14] = NCI-H292 cells, FDA library drug in cholesterol-free media with simvastatin 0.04 μM
[15] = NCI-H292 cells, FDA library drug in complete media
[16] = NCI-H292 cells, drug in cholesterol-free media with simvastatin 0.04 μM
[17] = NCI-H292 cells, drug in complete media
[18] = complete media minus cholesterol-free media + simvastatin, >0 enhanced anti-cancer activity, about 0 neutral, <0 antagonist
[19] = complete media minus cholesterol-free media + simvastatin (0.04 μM), >0 enhanced anti-cancer activity, about 0 neutral, <0 antagonist
[20] = NCI-H292 cells, cholesterol-free media with simvastatin 0.04 μM, cell growth value in FDA drug screen
[21] = NCI-H292 cells, complete media, cell growth value in FDA drug screen
[22] = Complete minus Cholesterol-free, greater than 0 enhanced anti-cancer activity, about 0 neutral, below 0 antagonist
[23] = NCI-H292 cells, FDA drug library screen, cholesterol-free media without statin
[24] = complete vs cholesterol-free media, greater than 0 enhanced anti-cancer activity, about 0 neutral, below 0 antagonists
[25] = NCI-H292 cells in cholesterol-free media without statin
[26] = NCI-H292 cells in complete media
[27] = complete media vs cholesterol-free media + simvastatin (0.04 μM), […]

## COc1cc(Nc2ncc(F)c(Nc3ccc4c(n3)N(COP(=O)(O)O)C(=O)C(C)(C)O4)n2)cc(OC)c1OC [Fostamatinib Disodium]
[1]; [3]
  Difference: −0.20
[1]; [4]
  Cholesterol-free: 1.102
[1]; NCI-H292 cells, complete media
  Complete: 0.9004
[2]; [5]
  Cholesterol-free media + simvastatin (0.04 μM): 0.7811
[2]; [6]
  Complete Media: 0.6698
[2]; [7]
  Difference: −0.11

## CCC[C@@]1(CCc2ccccc2)CC(O)=C([C@H](CC)c2cccc(NS(=O)(=O)c3ccc(C(F)(F)F)cn3)c2)C(=O)O1 [Tipranavir]
[1]; [8]
  Difference: −0.27
[1]; [4]
  Cholesterol-free: 0.9401
[1]; NCI-H292 cells, complete media
  Complete: 0.6703
[2]; [9]
  Cholesterol-free media + simvastatin (0.04 μM): 1.22
[2]; [10]
  Complete Media: 1.177
[2]; complete media minus cholesterol-free media + simvastatin (0.04 μM), […]
  Difference: −0.04

## CN(C)[C@@H]1C(O)=C(C(N)=O)C(=O)[C@@]2(O)C(O)=C3C(=O)c4c(O)cccc4[C@@](C)(O)[C@H]3[C@H](O)[C@@H]12 [Oxytetracycline]
[1]; [11]
  Cholesterol-free: 0.9301
[1]; [12]
  Complete: 1.086
[1]; [13]
  Difference: 0.16
[2]; [14]
  Cholesterol-free media + simvastatin (0.04 μM): 2.284
[2]; [15]
  Complete Media: 1.447
[2]; [7]
  Difference: −0.84

## NC[C@H]1O[C@H](O[C@H]2[C@H](O)[C@@H](O[C@H]3O[C@H](CO)[C@@H](O)[C@H](N)[C@H]3O)[C@H](N)C[C@@H]2N)[C@H](N)[C@@H](O)[C@@H]1O [Bekanamycin]
[1]; [11]
  Cholesterol-free: 0.873
[1]; [12]
  Complete: 1.446
[1]; [13]
  Difference: 0.57
[2]; [16]
  Cholesterol-free media + simvastatin (0.04 μM): 1.456
[2]; [17]
  Complete Media: 1.293
[2]; [7]
  Difference: −0.16

## NC(=O)NS(=O)(=O)c1ccc(N)cc1 [Sulfacarbamide]
[1]; [3]
  Difference: 0.04
[1]; [11]
  Cholesterol-free: 0.9085
[1]; [12]
  Complete: 0.9465
[2]; [5]
  Cholesterol-free media + simvastatin (0.04 μM): 0.9379
[2]; [6]
  Complete Media: 1.144
[2]; [18]
  Difference: 0.21

## CC1(O)CCC(C(C)(C)O)CC1 (stereo not drawn) [Terpin (hydrate)]
[1]; [3]
  Difference: 0.06
[1]; [11]
  Cholesterol-free: 0.8684
[1]; [12]
  Complete: 0.9288
[2]; [16]
  Cholesterol-free media + simvastatin (0.04 μM): 1.474
[2]; [17]
  Complete Media: 1.21
[2]; [7]
  Difference: −0.26

## O=C(Nc1ccc(O)cc1)c1ccccc1O [Osalmid]
[1]; [11]
  Cholesterol-free: 1.209
[1]; [12]
  Complete: 1.432
[1]; [13]
  Difference: 0.22
[2]; [9]
  Cholesterol-free media + simvastatin (0.04 μM): 0.9033
[2]; [10]
  Complete Media: 0.8951
[2]; [19]
  Difference: −0.01

## Cc1ncc(CNC(=O)N(CCCl)N=O)c(N)n1 [Nimustine (hydrochloride)]
[1]
  Cholesterol-free: 1.02
  Complete: 1.016
  Difference: 0.00
[2]
  Cholesterol-free media + simvastatin (0.04 μM): 1.194
  Complete Media: 1.026
  Difference: −0.17

## C[N+]1(C)[C@@H]2CC(OC(=O)C(O)(c3cccs3)c3cccs3)C[C@H]1[C@@H]1O[C@@H]12.[Br-] (stereo partly drawn) [Tiotropium (Bromide)]
[1]
  Cholesterol-free: 1.101
  Complete: 0.8685
  Difference: −0.23
[2]
  Cholesterol-free media + simvastatin (0.04 μM): 2.468
  Complete Media: 1.196
  Difference: −1.27

## CC(=O)O[C@@]12CO[C@@H]1C[C@H](O)[C@@]1(C)C(=O)[C@H](O)C3=C(C)[C@@H](OC(=O)[C@H](O)[C@@H](NC(=O)OC(C)(C)C)c4ccccc4)C[C@@](O)([C@@H](OC(=O)c4ccccc4)[C@H]21)C3(C)C [Docetaxel]
[1]; [3]
  Difference: 0.04
[1]; [11]
  Cholesterol-free: 0.1661
[1]; [12]
  Complete: 0.2055
[2]; [20]
  Cholesterol-free media + simvastatin (0.04 μM): 0.2547
[2]; [21]
  Complete Media: 0.2778
[2]; [18]
  Difference: 0.02

## C=C[C@@H]1C[C@]1(NC(=O)[C@@H]1C[C@@H](Oc2ncc(OC)c3ccc(Cl)cc23)CN1C(=O)[C@@H](NC(=O)OC(C)(C)C)C(C)(C)C)C(=O)NS(=O)(=O)C1CC1 [Asunaprevir]
[1]; [22]
  Difference: −0.09
[1]; [23]
  Cholesterol-free: 1.081
[1]; [6]
  Complete: 0.9902
[2]; [9]
  Cholesterol-free media + simvastatin (0.04 μM): 1.005
[2]; [10]
  Complete Media: 0.9979
[2]; [19]
  Difference: −0.01

## O=C(O[C@H]1CN2CCC1CC2)N1CCc2ccccc2[C@@H]1c1ccccc1 [Solifenacin (hydrochloride)]
[1]; [4]
  Cholesterol-free: 1.128
[1]; NCI-H292 cells, complete media
  Complete: 0.8222
[1]; [24]
  Difference: −0.31
[2]; [20]
  Cholesterol-free media + simvastatin (0.04 μM): 0.865
[2]; [21]
  Complete Media: 0.978
[2]; [18]
  Difference: 0.11

## Phillyrin
[1]; [8]
  Difference: −0.77
[1]; [25]
  Cholesterol-free: 1.584
[1]; [26]
  Complete: 0.8182
[2]; [5]
  Cholesterol-free media + simvastatin (0.04 μM): 1.405
[2]; [6]
  Complete Media: 1.262
[2]; [27]
  Difference: −0.14

## CCN1CCCC1CNC(=O)c1cc(S(N)(=O)=O)ccc1OC (stereo not drawn) [Sulpiride]
[1]; [3]
  Difference: −0.22
[1]; [4]
  Cholesterol-free: 1.254
[1]; NCI-H292 cells, complete media
  Complete: 1.03
[2]; [9]
  Cholesterol-free media + simvastatin (0.04 μM): 1.077
[2]; [10]
  Complete Media: 1.053
[2]; [19]
  Difference: −0.02

## O=C(O)/C=C/c1ccc(Cn2ccnc2)cc1 [Ozagrel (sodium)]
[1]; [3]
  Difference: −0.07
[1]; [11]
  Cholesterol-free: 1.134
[1]; [12]
  Complete: 1.068
[2]; [9]
  Cholesterol-free media + simvastatin (0.04 μM): 1.082
[2]; [10]
  Complete Media: 1.026
[2]; [19]
  Difference: −0.06

## Nc1c(CC(=O)O)cccc1C(=O)c1ccc(Br)cc1 [Bromfenac (sodium hydrate)]
[1]; [4]
  Cholesterol-free: 1.074
[1]; NCI-H292 cells, complete media
  Complete: 0.716
[1]; [24]
  Difference: −0.36
[2]; [5]
  Cholesterol-free media + simvastatin (0.04 μM): 1.132
[2]; [6]
  Complete Media: 1.293
[2]; [18]
  Difference: 0.16

## CO[C@@]1(NC(=O)Cc2cccs2)C(=O)N2C(C(=O)O)=C(COC(N)=O)CS[C@@H]21 [Cefoxitin]
[1]; [22]
  Difference: −0.13
[1]; [23]
  Cholesterol-free: 0.8861
[1]; [6]
  Complete: 0.755
[2]; [14]
  Cholesterol-free media + simvastatin (0.04 μM): 1.841
[2]; [15]
  Complete Media: 1.5
[2]; [7]
  Difference: −0.34

## COC1=C[C@@H]2[C@@H]3Cc4ccc(OC)c(O)c4[C@]2(CCN3C)CC1=O [Sinomenine hydrochloride]
[1]; [11]
  Cholesterol-free: 1.217
[1]; [12]
  Complete: 1.524
[1]; complete vs cholesterol-free media, […]
  Difference: 0.31
[2]; [16]
  Cholesterol-free media + simvastatin (0.04 μM): 1.006
[2]; [17]
  Complete Media: 0.7844
[2]; [27]
  Difference: −0.22

## CC(=O)[C@H]1CC[C@H]2[C@@H]3C[C@H](C)C4=CC(=O)CC[C@]4(C)[C@H]3[C@@H](O)C[C@]12C [Medrysone]
[1]; [11]
  Cholesterol-free: 0.895
[1]; [12]
  Complete: 1.283
[1]; [13]
  Difference: 0.39
[2]; [16]
  Cholesterol-free media + simvastatin (0.04 μM): 1.51
[2]; [17]
  Complete Media: 1.254
[2]; [7]
  Difference: −0.26

## CC1(C)S[C@@H]2[C@H](NC(=O)[C@H](N)c3ccccc3)C(=O)N2[C@H]1C(=O)[O-].[Na+] [Ampicillin (sodium)]
[1]; [4]
  Cholesterol-free: 1.356
[1]; NCI-H292 cells, complete media
  Complete: 0.9032
[1]; [24]
  Difference: −0.45
[2]; [16]
  Cholesterol-free media + simvastatin (0.04 μM): 1.087
[2]; [17]
  Complete Media: 0.8623
[2]; [7]
  Difference: −0.22

## CC(C)(Sc1cc(C(C)(C)C)c(O)c(C(C)(C)C)c1)Sc1cc(C(C)(C)C)c(O)c(C(C)(C)C)c1 [Probucol]
[1]; Complete minus Cholesterol-free, greater than 0 enhanced anti-cancer activity, about 0 neutral, below 0 antagonists
  Difference: −0.87
[1]; [25]
  Cholesterol-free: 1.75
[1]; [26]
  Complete: 0.8825
[2]; [16]
  Cholesterol-free media + simvastatin (0.04 μM): 1.293
[2]; [17]
  Complete Media: 1.087
[2]; [7]
  Difference: −0.21

## O=C(CO)[C@@H](O)[C@H](O)[C@H](O)CO [D-Fructose]
[1]; [3]
  Difference: 0.05
[1]; [11]
  Cholesterol-free: 1.151
[1]; [12]
  Complete: 1.203
[2]; [16]
  Cholesterol-free media + simvastatin (0.04 μM): 1.284
[2]; [17]
  Complete Media: 1.053
[2]; [7]
  Difference: −0.23
